# Source: patent US11136329B2, “JAK inhibitors” (Vimalan Biosciences, Inc., priority 2019, dated 2021)
# How the values were obtained:
# Format in all cases: biochemical
# [1] = molecular target: JAK1 (Homo sapiens (Human), UniProt P23458); test: JAK/TYK2 assay (Kinase Glo luminescence), JAK1; conditions: 7.5 nM enzyme, 2 uM ATP, 30 uM IRS-1, 1 hr
# Description: (§1) 10 mM test compound stock or 1 mM control compound stock (tofocitinib, ruxolitinib or staurosporine) in DMSO was diluted to 0.4 mM in DMSO. A 3-fold series dilution was then performed in DMSO to generate 10 different compound concentrations. The assay was carried out in 384-well white plate. 0.5 uL of 40× compound DMSO solution at different concentrations was mixed with 10 uL 2× enzyme prepared in reaction buffer (20 mM HEPES, 10 mM MgCl2, 0.01% Tween, 1 mM DTT, pH 7.5). 10 uL 2× substrate mixture prepared in reaction buffer was then added to start the reaction. A short spin was done to settle down all solutions to the bottom of the plate. Final concentrations of test compound in the reaction mixture were 10000, 3333, 1111, 370, 123, 41.2, 13.7, 4.57, 1.52and 0.51 nM. Concentrations of control compound were ten times less. Enzymatic reaction was conducted at 25° C. for 1-2 hours. 10 uL of Kinase Glo Reagents was added to stop the reaction and generate the luminescent signal which was measured using Envision. Luminescence signal was inversely related to kinase activity. […] The mixture without any compound was the positive control.
# [2] = molecular target: JAK2 (Homo sapiens (Human), UniProt O60674); test: JAK/TYK2 assay (Kinase Glo luminescence), JAK2; conditions: 0.8 nM enzyme, 2 uM ATP, 4 uM pEY, 1 hr
# Description: as §1
# [3] = molecular target: JAK3 (Homo sapiens (Human), UniProt P52333); test: JAK/TYK2 assay (Kinase Glo luminescence), JAK3; conditions: 1.5 nM enzyme, 2 uM ATP, 4 uM pEY, 1 hr
# Description: as §1
# [4] = molecular target: TYK2 (Homo sapiens (Human), UniProt P29597); test: JAK/TYK2 assay (Kinase Glo luminescence), TYK2; conditions: 9 nM enzyme, 2 uM ATP, 30 uM IRS-1, 1 hr
# Description: as §1
# Sequence of TYK2 (P29597 whole entry, species assumed): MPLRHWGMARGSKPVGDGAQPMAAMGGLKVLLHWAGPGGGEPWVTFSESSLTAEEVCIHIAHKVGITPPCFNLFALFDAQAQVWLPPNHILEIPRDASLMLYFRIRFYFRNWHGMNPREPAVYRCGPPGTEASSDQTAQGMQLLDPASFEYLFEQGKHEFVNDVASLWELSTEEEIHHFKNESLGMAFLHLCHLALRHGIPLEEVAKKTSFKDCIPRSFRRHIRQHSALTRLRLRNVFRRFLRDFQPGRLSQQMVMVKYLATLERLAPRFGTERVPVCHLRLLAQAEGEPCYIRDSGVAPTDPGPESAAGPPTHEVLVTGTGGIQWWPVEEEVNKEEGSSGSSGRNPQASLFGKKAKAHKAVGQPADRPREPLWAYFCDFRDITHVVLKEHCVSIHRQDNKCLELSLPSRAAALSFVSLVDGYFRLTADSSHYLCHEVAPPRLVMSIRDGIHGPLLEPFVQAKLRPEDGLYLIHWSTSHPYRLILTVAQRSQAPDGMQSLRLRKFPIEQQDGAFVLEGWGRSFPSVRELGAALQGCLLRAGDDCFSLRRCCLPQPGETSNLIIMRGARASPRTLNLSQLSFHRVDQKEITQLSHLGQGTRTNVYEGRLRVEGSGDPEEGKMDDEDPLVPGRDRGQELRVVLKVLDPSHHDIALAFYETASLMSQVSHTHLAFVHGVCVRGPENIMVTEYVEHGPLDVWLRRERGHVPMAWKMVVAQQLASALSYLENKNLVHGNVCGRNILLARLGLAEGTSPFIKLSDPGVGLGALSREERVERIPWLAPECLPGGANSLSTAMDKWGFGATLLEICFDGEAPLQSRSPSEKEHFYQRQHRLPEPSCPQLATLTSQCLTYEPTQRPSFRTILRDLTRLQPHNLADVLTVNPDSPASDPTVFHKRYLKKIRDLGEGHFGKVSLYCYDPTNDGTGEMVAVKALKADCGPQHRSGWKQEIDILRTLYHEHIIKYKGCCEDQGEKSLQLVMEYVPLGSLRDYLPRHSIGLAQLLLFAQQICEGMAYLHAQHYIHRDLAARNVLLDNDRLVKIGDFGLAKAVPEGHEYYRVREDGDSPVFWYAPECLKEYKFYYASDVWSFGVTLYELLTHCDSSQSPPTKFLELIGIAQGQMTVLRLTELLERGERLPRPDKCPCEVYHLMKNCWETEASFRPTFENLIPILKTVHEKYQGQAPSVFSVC
# Sequence of JAK3 (P52333 whole entry, species assumed): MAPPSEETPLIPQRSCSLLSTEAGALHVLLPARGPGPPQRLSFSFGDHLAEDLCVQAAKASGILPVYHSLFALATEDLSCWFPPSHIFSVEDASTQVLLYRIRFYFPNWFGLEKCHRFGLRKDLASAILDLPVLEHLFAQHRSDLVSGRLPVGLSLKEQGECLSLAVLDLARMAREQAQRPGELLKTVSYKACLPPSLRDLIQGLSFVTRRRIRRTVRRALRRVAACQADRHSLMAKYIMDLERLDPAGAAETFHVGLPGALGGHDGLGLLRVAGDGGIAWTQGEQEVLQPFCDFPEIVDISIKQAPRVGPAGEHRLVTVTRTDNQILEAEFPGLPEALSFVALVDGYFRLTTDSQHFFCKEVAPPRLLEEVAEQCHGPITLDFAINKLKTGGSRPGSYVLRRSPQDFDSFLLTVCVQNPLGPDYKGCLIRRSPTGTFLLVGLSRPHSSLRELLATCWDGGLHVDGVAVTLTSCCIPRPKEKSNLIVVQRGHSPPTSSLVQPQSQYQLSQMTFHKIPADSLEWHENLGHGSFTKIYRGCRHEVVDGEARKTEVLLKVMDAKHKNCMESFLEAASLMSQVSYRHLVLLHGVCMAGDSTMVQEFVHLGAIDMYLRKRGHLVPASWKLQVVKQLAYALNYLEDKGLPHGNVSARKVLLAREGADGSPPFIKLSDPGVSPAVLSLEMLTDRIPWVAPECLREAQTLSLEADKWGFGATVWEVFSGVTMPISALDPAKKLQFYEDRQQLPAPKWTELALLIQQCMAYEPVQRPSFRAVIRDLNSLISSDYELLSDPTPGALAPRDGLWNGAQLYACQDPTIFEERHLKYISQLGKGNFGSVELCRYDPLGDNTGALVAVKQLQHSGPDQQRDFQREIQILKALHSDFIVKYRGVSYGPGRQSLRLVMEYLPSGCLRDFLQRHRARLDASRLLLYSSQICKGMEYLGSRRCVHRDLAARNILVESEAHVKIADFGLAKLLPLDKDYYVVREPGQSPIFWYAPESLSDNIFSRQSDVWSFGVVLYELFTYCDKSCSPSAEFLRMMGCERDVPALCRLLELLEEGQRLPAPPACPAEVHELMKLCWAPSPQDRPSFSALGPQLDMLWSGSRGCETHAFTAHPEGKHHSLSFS
# Sequence of JAK2 (O60674 whole entry, species assumed): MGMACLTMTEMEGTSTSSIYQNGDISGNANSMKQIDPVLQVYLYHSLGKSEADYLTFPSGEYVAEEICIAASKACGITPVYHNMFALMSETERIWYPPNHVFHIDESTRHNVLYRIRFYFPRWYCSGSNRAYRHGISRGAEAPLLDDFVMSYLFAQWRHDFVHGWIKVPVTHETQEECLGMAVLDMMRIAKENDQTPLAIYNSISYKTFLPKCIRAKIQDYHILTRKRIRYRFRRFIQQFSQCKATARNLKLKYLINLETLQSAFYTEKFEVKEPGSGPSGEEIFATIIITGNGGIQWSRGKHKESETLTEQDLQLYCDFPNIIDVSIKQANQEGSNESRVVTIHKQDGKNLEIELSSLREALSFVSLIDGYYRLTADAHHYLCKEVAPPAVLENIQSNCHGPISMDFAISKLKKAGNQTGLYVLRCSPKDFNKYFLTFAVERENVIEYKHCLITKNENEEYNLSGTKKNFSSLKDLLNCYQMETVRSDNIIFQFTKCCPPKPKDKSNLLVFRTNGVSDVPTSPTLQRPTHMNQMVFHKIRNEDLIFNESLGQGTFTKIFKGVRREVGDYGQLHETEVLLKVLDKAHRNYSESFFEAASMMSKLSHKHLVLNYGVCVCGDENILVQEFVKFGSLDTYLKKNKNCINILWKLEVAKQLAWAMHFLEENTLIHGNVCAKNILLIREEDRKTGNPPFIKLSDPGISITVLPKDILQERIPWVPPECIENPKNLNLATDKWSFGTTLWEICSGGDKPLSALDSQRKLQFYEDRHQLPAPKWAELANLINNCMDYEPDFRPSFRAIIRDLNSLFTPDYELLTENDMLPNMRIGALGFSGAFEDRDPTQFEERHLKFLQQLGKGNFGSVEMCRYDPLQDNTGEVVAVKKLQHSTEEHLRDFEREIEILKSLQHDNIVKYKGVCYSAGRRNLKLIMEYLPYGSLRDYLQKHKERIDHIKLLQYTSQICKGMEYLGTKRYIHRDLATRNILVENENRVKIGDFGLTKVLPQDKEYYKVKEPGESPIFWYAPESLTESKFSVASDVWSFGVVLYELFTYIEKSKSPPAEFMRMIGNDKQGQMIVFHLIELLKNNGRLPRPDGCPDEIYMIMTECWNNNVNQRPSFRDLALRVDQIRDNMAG
# Sequence of JAK1 (P23458 whole entry, species assumed): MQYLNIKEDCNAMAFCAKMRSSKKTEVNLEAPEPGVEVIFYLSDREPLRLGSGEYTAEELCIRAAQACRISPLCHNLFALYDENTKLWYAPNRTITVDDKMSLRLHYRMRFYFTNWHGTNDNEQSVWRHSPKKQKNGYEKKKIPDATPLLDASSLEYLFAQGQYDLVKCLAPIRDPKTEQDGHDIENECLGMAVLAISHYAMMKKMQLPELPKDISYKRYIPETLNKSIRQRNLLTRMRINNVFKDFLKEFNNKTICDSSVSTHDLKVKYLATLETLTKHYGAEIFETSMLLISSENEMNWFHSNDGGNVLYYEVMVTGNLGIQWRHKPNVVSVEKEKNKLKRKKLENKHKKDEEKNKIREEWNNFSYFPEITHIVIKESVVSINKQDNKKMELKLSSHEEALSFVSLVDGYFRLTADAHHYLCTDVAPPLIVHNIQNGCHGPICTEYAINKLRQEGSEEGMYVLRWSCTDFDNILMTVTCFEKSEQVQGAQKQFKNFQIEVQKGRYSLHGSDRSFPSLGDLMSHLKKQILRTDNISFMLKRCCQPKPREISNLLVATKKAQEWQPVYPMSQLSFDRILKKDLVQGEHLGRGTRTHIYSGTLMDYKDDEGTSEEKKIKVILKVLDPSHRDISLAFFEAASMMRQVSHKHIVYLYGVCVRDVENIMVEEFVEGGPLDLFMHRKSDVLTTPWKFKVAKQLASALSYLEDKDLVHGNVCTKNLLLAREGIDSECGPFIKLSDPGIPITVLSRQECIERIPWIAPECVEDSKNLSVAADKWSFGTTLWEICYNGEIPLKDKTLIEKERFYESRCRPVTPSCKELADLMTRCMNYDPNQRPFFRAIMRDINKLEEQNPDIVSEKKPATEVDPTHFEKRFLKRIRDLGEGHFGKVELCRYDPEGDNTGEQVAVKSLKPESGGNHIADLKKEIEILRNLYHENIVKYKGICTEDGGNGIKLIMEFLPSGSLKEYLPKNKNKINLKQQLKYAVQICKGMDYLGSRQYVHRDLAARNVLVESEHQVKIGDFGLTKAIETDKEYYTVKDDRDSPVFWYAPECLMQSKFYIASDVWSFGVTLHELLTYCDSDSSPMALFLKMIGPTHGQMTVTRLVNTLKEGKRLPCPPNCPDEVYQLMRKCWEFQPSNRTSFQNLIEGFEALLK
Compound,IC50 [1],IC50 [2],IC50 [3],IC50 [4]
"CC[C@H](Cn1ccc2cnc(Nc3cnn([C@@H]4CCOC4=O)c3)nc21)C(C)C [Compound 82A, (R)-3-(4-((7-((S)-2-ethyl-3-methylbutyl)-7H-pyrrolo[2,3-d]pyrimidin-2-yl)amino)-1H-pyrazol-1-yl)dihydrofuran-2(3H)-one]",< 100 nM,< 100 nM,< 100 nM,< 100 nM
"CC[C@H](Cn1ccc2cnc(Nc3cnn([C@H]4CCOC4=O)c3)nc21)C(C)C [Compound 82B, (S)-3-(4-((7-((S)-2-ethyl-3-methylbutyl)-7H-pyrrolo[2,3-d]pyrimidin-2-yl)amino)-1H-pyrazol-1-yl)dihydrofuran-2(3H)-one]",< 100 nM,< 100 nM,< 100 nM,< 100 nM
"CCC(Cn1ccc2cnc(Nc3cnn(CC(=O)OC(C)C)c3)nc21)C(C)C (stereo not drawn) [Compound 83, isopropyl 2-(4-((7-(2-ethyl-3-methylbutyl)-7H-pyrrolo[2,3-d]pyrimidin-2-yl)amino)-1H-pyrazol-1-yl)acetate]",< 100 nM,< 100 nM,< 100 nM,< 100 nM
"CCCCOC(=O)Cn1cc(Nc2ncc3ccn(CC(CC)C(C)C)c3n2)cn1 (stereo not drawn) [Compound 84, butyl 2-(4-((7-(2-ethyl-3-methylbutyl)-7H-pyrrolo[2,3-d]pyrimidin-2-yl)amino)-1H-pyrazol-1-yl)acetate]",< 100 nM,< 100 nM,< 100 nM,< 100 nM
"CCC(Cn1ccc2cnc(Nc3cnn(CC(=O)OCCO)c3)nc21)C(C)C (stereo not drawn) [Compound 85, 2-hydroxyethyl 2-(4-((7-(2-ethyl-3-methylbutyl)-7H-pyrrolo[2,3-d]pyrimidin-2-yl)amino)-1H-pyrazol-1-yl)acetate]",< 100 nM,< 100 nM,< 100 nM,< 100 nM
"CCOCCOC(=O)Cn1cc(Nc2ncc3ccn(CC(CC)C(C)C)c3n2)cn1 (stereo not drawn) [Compound 86, 2-ethoxyethyl 2-(4-((7-(2-ethyl-3-methylbutyl)-7H-pyrrolo[2,3-d]pyrimidin-2-yl)amino)-1H-pyrazol-1-yl)acetate]",< 100 nM,< 100 nM,< 100 nM,< 100 nM
"CC(C)C(Cn1ccc2cnc(Nc3cnn(CC(=O)O)c3)nc21)C(C)C [Compound 87, 2-(4-((7-(2-isopropyl-3-methylbutyl)-7H-pyrrolo[2,3-d]pyrimidin-2-yl)amino)-1H-pyrazol-1-yl)acetic acid]",< 100 nM,< 100 nM,< 100 nM,< 100 nM
"CC(C)C(Cn1ccc2cnc(Nc3cnn(CC(=O)OCCO)c3)nc21)C(C)C [Compound 88, 2-hydroxyethyl 2-(4-((7-(2-isopropyl-3-methylbutyl)-7H-pyrrolo[2,3-d]pyrimidin-2-yl)amino)-1H-pyrazol-1-yl)acetate]",< 100 nM,< 100 nM,< 100 nM,< 100 nM
"CCC(CC)Cn1ccc2cnc(Nc3cnn(CC(=O)OCCC#N)c3)nc21 [Compound 89, 2-cyanoethyl 2-(4-((7-(2-ethylbutyl)-7H-pyrrolo[2,3-d]pyrimidin-2-yl)amino)-1H-pyrazol-1-yl)acetate]",< 100 nM,< 100 nM,< 100 nM,< 100 nM
"CCC(CC)Cn1ccc2cnc(Nc3cnn(CC(=O)OCCO)c3)nc21 [Compound 90, 2-hydroxyethyl 2-(4-((7-(2-ethylbutyl)-7H-pyrrolo[2,3-d]pyrimidin-2-yl)amino)-1H-pyrazol-1-yl)acetate]",< 100 nM,< 100 nM,< 100 nM,< 100 nM
"CCC(CC)Cn1ccc2cnc(Nc3cnn(CC(=O)OC4CC(C#N)C4)c3)nc21 (stereo not drawn) [Compound 91, 3-cyanocyclobutyl 2-(4-((7-(2-ethylbutyl)-7H-pyrrolo[2,3-d]pyrimidin-2-yl)amino)-1H-pyrazol-1-yl)acetate]",< 100 nM,< 100 nM,< 100 nM,< 100 nM
"CCC(Cn1ccc2cnc(Nc3cnn(CC(=O)OCCC#N)c3)nc21)C(C)C (stereo not drawn) [Compound 92, 2-cyanoethyl 2-(4-((7-(2-ethyl-3-methylbutyl)-7H-pyrrolo[2,3-d]pyrimidin-2-yl)amino)-1H-pyrazol-1-yl)acetate]",< 100 nM,< 100 nM,< 100 nM,< 100 nM
"CCC(CC)Cn1ccc2cnc(Nc3cnn(CC(=O)OC(C)C)c3)nc21 [Compound 93, isopropyl 2-(4-((7-(2-ethylbutyl)-7H-pyrrolo[2,3-d]pyrimidin-2-yl)amino)-1H-pyrazol-1-yl)acetate]",< 100 nM,< 100 nM,< 100 nM,< 100 nM
"CC(C)OC(=O)Cn1cc(Nc2ncc3ccn(CC(C(C)C)C(C)C)c3n2)cn1 [Compound 94, isopropyl 2-(4-((7-(2-isopropyl-3-methylbutyl)-7H-pyrrolo[2,3-d]pyrimidin-2-yl)amino)-1H-pyrazol-1-yl)acetate]",< 100 nM,< 100 nM,< 100 nM,< 100 nM

# The remaining lines, values ahead:
IC50 [1],IC50 [2],IC50 [3],IC50 [4],Compound
100 to 1000 nM,100 to 1000 nM,100 to 1000 nM,100 to 1000 nM,"CC(C)OC(=O)Cn1cc(Nc2ncc3ccn(C[C@@H](CCN(C)C)C(C)C)c3n2)cn1 [Compound 96, isopropyl (S)-2-(4-((7-(4-(dimethylamino)-2-isopropylbutyl)-7H-pyrrolo[2,3-d]pyrimidin-2-yl)amino)-1H-pyrazol-1-yl)acetate]"
< 100 nM,< 100 nM,< 100 nM,< 100 nM,"CC(C)OC(=O)Cn1cc(Nc2ncc3ccn(C[C@@H](CCO)C(C)C)c3n2)cn1 [Compound 97, isopropyl (S)-2-(4-((7-(4-hydroxy-2-isopropylbutyl)-7H-pyrrolo[2,3-d]pyrimidin-2-yl)amino)-1H-pyrazol-1-yl)acetate]"
< 100 nM,< 100 nM,< 100 nM,< 100 nM,"CC(C)OC(=O)Cn1cc(Nc2ncc3ccn(C[C@@H](CCCl)C(C)C)c3n2)cn1 [Compound 98, isopropyl (S)-2-(4-((7-(4-chloro-2-isopropylbutyl)-7H-pyrrolo[2,3-d]pyrimidin-2-yl)amino)-1H-pyrazol-1-yl)acetate]"
< 100 nM,< 100 nM,< 100 nM,< 100 nM,"CC(C)OC(=O)Cn1cc(Nc2ncc3ccn(C[C@@H](CCF)C(C)C)c3n2)cn1 [Compound 99, isopropyl (S)-2-(4-((7-(4-fluoro-2-isopropylbutyl)-7H-pyrrolo[2,3-d]pyrimidin-2-yl)amino)-1H-pyrazol-1-yl)acetate]"
< 100 nM,< 100 nM,< 100 nM,< 100 nM,"CCC[C@H](Cn1ccc2cnc(Nc3cnn(CC(=O)OC(C)C)c3)nc21)C(C)C [Compound 100, isopropyl (S)-2-(4-((7-(2-isopropylpentyl)-7H-pyrrolo[2,3-d]pyrimidin-2-yl)amino)-1H-pyrazol-1-yl)acetate]"
< 100 nM,< 100 nM,< 100 nM,< 100 nM,"CCC(Cn1ccc2cnc(Nc3cnn(CC(=O)OC(C)C)c3)nc21)CC(F)(F)F (stereo not drawn) [Compound 101, isopropyl 2-(4-((7-(2-ethyl-4,4,4-trifluorobutyl)-7H-pyrrolo[2,3-d]pyrimidin-2-yl)amino)-1H-pyrazol-1-yl)acetate]"
< 100 nM,< 100 nM,< 100 nM,< 100 nM,"C=CC[C@H](Cn1ccc2cnc(Nc3cnn(CC(=O)OC(C)C)c3)nc21)C(C)C [Compound 102, isopropyl (S)-2-(4-((7-(2-isopropylpent-4-en-1-yl)-7H-pyrrolo[2,3-d]pyrimidin-2-yl)amino)-1H-pyrazol-1-yl)acetate]"
< 100 nM,< 100 nM,< 100 nM,< 100 nM,"CCC(CC)Cn1ccc2cnc(Nc3cnn(CC(=O)OCCN(C)C)c3)nc21 [Compound 103, 2-(dimethylamino)ethyl 2-(4-((7-(2-ethylbutyl)-7H-pyrrolo[2,3-d]pyrimidin-2-yl)amino)-1H-pyrazol-1-yl)acetate]"
< 100 nM,< 100 nM,< 100 nM,< 100 nM,"CC[C@H](Cn1ccc2cnc(Nc3cnn(CC(=O)O)c3)nc21)C(C)C [Compound 104, (S)-2-(4-((7-(2-ethyl-3-methylbutyl)-7H-pyrroIo[2,3-d]pyrimidin-2-yl)amino)-1H-pyrazol-1-yl)acetic acid]"
< 100 nM,< 100 nM,< 100 nM,< 100 nM,"CCC(Cn1ccc2cnc(Nc3cnn(CC(=O)O[C@@H](C)CO)c3)nc21)C(C)C (stereo partly drawn) [Compound 105, (S)-1-hydroxypropan-2-yl 2-(4-((7-(2-ethyl-3-methylbutyl)-7H-pyrrolo[2,3-d]pyrimidin-2-yl)amino)-1H-pyrazol-1-yl)acetate]"
